Measurements published in ChEMBL document CHEMBL1131802, “Design and synthesis of beta-carboxamido phosphonates as potent inhibitors of imidazole glycerol phosphate dehydratase” (Bioorg Med Chem Lett, 1999).

Experiments:
[1] = biological target: T1, Imidazoleglycerol-phosphate dehydratase (Cryptococcus neoformans var. neoformans B-3501A, UniProt P0CO23); assay: Binding affinity imidazole glycerol phosphate dehydratase (IGPD) obtained from Cryptococcus neoformans
[2] = biological target: T1, Imidazoleglycerol-phosphate dehydratase; assay: Inhibitory concentration against imidazole glycerol phosphate dehydratase (IGPD) from Cryptococcus neoformans
[3] = biological target: Imidazoleglycerol-phosphate dehydratase (Cryptococcus neoformans var. neoformans B-3501A) (UniProt P0CO23); assay: Kinetic constant for the inhibition of imidazole glycerol phosphate dehydratase (IGPD)
Imidazoleglycerol-phosphate dehydratase (Cryptococcus neoformans var. neoformans B-3501A), sequence (P0CO23 whole entry, looked up): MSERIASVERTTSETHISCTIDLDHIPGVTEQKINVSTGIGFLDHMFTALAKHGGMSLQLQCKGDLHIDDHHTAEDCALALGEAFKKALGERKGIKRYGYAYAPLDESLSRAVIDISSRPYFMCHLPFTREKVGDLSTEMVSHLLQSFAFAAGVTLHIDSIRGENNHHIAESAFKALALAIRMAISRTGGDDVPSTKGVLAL

T1 sequence (P0CO23 whole entry, looked up): as above

Ki [1] [µM] | IC50 [2] [µM] | Kis [3] [µM] | SMILES
0.88 | 3.1 | 3.7 | O=C(CCC1CCCC1)NC(Cn1cncn1)CP(=O)(O)O (centres undefined)
0.08 | 0.38 | 0.27 | O=C(COc1ccccc1)NC(Cn1cncn1)CP(=O)(O)O (centres undefined)
 | 2.9 |  | CC1(C)CC(=O)OC1CC(=O)NC(Cn1cncn1)CP(=O)(O)O (centres undefined)
10 | > 50 | 100 | O=C(NC(Cn1cncn1)CP(=O)(O)O)c1ccccc1 (centres undefined)
7.5 | > 50 | 33 | O=C(NC(Cn1cncn1)CP(=O)(O)O)c1ccco1 (centres undefined)
1.3 | 4.5 | 5.5 | CC(C)=CC(=O)NC(Cn1cncn1)CP(=O)(O)O (centres undefined)
4.5 | 21 | 25 | O=C(/C=C/c1ccccc1)NC(Cn1cncn1)CP(=O)(O)O (centres undefined)
1.2 | 6.1 | 9 | CCC(=O)NC(Cn1cncn1)CP(=O)(O)O (centres undefined)
0.34 | 0.84 | 1.22 | CCCCCC(=O)NC(Cn1cncn1)CP(=O)(O)O (centres undefined)
0.55 | 2 | 2.12 | O=C(COc1ccc(Cl)cc1)NC(Cn1cncn1)CP(=O)(O)O (centres undefined)
0.34 | 2.7 | 3.9 | O=C(Cc1ccccc1)NC(Cn1cncn1)CP(=O)(O)O (centres undefined)
2.2 | 10 | 17 | COCC(=O)NC(Cn1cncn1)CP(=O)(O)O (centres undefined)
 | > 50 |  | CNC(=O)C(=O)NC(Cn1cncn1)CP(=O)(O)O (centres undefined)
4 | 17 | 19 | O=C(NC(Cn1cncn1)CP(=O)(O)O)C1CC1 (centres undefined)
0.27 | 0.96 | 1.14 | O=C(CCc1ccccc1)NC(Cn1cncn1)CP(=O)(O)O (centres undefined)

The remaining lines, values behind:

SMILES | Ki [1] [µM] | IC50 [2] [µM] | Kis [3] [µM]
C/C=C/C(=O)NC(Cn1cncn1)CP(=O)(O)O (centres undefined) | 1.45 | 4 | 5.6
O=C(NC(Cn1cncn1)CP(=O)(O)O)c1ccccc1O (centres undefined) | 3.5 | 16 | 22
O=C(CSc1ccccc1)NC(Cn1cncn1)CP(=O)(O)O (centres undefined) | 0.25 | 0.92 | 1.26
O=P(O)(O)CC(O)Cn1cncn1 (centres undefined) | 0.0006 |  | 
CC1(CCC(=O)NC(Cn2cncn2)CP(=O)(O)O)SCCS1 (centres undefined) |  | 0.8 | 
O=C(Cc1cccs1)NC(Cn1cncn1)CP(=O)(O)O (centres undefined) | 0.56 | 3.5 | 2.4
CC(Oc1ccccc1)C(=O)NC(Cn1cncn1)CP(=O)(O)O (centres undefined) | 0.23 | 1.5 | 1.22
O=C(CCC(=O)c1ccccc1)NC(Cn1cncn1)CP(=O)(O)O (centres undefined) |  | 20 | 
NC(Cn1cncn1)CP(=O)(O)O (centres undefined) | 0.015 |  | 
CC(C)(C)CC(=O)NC(Cn1cncn1)CP(=O)(O)O (centres undefined) | 1.13 | 4.8 | 5
O=C(NC(Cn1cncn1)CP(=O)(O)O)c1c(F)cccc1F (centres undefined) | 1.15 | 4.6 | 5.8
CCCCc1ccc(C(=O)NC(Cn2cncn2)CP(=O)(O)O)cc1 (centres undefined) | 1.3 | 4.1 | 5.9
CC(=O)NC(Cn1cncn1)CP(=O)(O)O (centres undefined) | 0.8 | 3.9 | 6.1
O=C(CCc1cccc([N+](=O)[O-])c1)NC(Cn1cncn1)CP(=O)(O)O (centres undefined) |  | 1.5 | 
O=C(CO)NC(Cn1cncn1)CP(=O)(O)O (centres undefined) | 0.23 | 0.91 | 1.23
COC(=O)CCCC(=O)NC(Cn1cncn1)CP(=O)(O)O (centres undefined) | 0.7 | 2.8 | 3.95
